{"source": "patent US20120053056A1", "about": "“COMPOSITIONS AND METHODS FOR IMPROVING THE COMPATIBILITY OF WATER SOLUBLE HERBICIDE SALTS” (DOW AGROSCIENCES LLC, priority 2010, published 2012)", "key": {"[1]": {"experiment": "On-set pH of crystallization of aqueous 2,4-D potassium solution with added crystal inhibitor (CI), pH lowered with 0.2 N sulfuric acid", "format": "physicochemical", "details": "3% ae 2,4-D K salt in water; CI 0.2 wt %"}, "[2]": {"experiment": "Spray solution compatibility (crystal formation) of 2,4-D and glyphosate salts with 2% AMS and added crystal inhibitor", "format": "physicochemical", "details": "2% AMS, 342 ppm hardness water, 24 h room temperature", "excerpt": "Spray solutions were formed from aqueous concentrates of 2,4-D choline (prepared by mixing equimolar amounts of 2,4-D acid and choline hydroxide in water) or 2,4-D DMA and various glyphosate salts (potassium, isopropyl ammonium or dimethyl ammonium) at various concentrations (weight percent acid equivalent basis) of the respective active ingredients with and without added polyethylenimine or polyvinylamine crystal inhibitor (CI)."}}}
{"smiles": "NCCNCCNCCNCCN", "note": "[TEPA, tetraethylenepentamine]", "values": [{"measurement": "On-set pH of Crystallization", "setting": "[1]", "result": 5.68}, {"measurement": "Result (crystals observed 24 hours after preparation of tank mixture)", "setting": "[2]; 2,4-D choline 1.8 wt % ae + WeatherMax 1.8 wt % ae, CI 0.2%", "result": 1}, {"measurement": "Result (crystals observed 24 hours after preparation of tank mixture)", "setting": "[2]; 2,4-D choline 1.8 wt % ae + WeatherMax 1.8 wt % ae, CI 0.4%", "result": 0}, {"measurement": "Result (crystals observed 24 hours after preparation of tank mixture)", "setting": "[2]; 2,4-D choline 1.8 wt % ae + WeatherMax (glyphosate potassium) 1.8 wt % ae, CI 0.1%", "result": 3}]}
